In PMC10932281, “A Combination of β-Aescin and Newly Synthesized Alkylamidobetaines as Modern Components Eradicating the Biofilms of Multidrug-Resistant Clinical Strains of Candida glabrata” (International Journal of Molecular Sciences, 2024):
In brackets after ≈: the same amount, converted by molar mass. Blank lines part the entries; values can stand above or below the molecule they belong to.

Experiments:
Type in all cases: cell-based, Candida glabrata
C. glabrata 2586 [1] = experiment: Interaction of AABs (3 µM) with antifungal agents, modified checkerboard; details: for Multiplicity factor (MF) with C9: C9 3 µM; for Multiplicity factor (MF) with C11: C11 3 µM; for MIC90 of antimycotic combined with C11: C11 at constant 3 µM; for MIC90 of antimycotic combined with C11 / MIC90 of antimycotic combined with C13 / MIC90 of antimycotic combined with C9 / MIC90 of antimycotic combined with C15: dilutions in µg/mL; for Multiplicity factor (MF) with C13: C13 3 µM; for MIC90 of antimycotic combined with C13: C13 at constant 3 µM; for Multiplicity factor (MF) with C15: C15 3 µM; for MIC90 of antimycotic combined with C9: C9 at constant 3 µM; for MIC90 of antimycotic combined with C15: C15 at constant 3 µM
C. glabrata 2853 [2] = experiment: as above; details: for Multiplicity factor (MF) with C9: C9 3 µM; for MIC90 of antimycotic combined with C9: C9 at constant 3 µM; for MIC90 of antimycotic combined with C9 / MIC90 of antimycotic combined with C11 / MIC90 of antimycotic combined with C13 / MIC90 of antimycotic combined with C15: dilutions in µg/mL; for Multiplicity factor (MF) with C11: C11 3 µM; for MIC90 of antimycotic combined with C11: C11 at constant 3 µM; for Multiplicity factor (MF) with C13: C13 3 µM; for MIC90 of antimycotic combined with C13: C13 at constant 3 µM; for Multiplicity factor (MF) with C15: C15 3 µM; for MIC90 of antimycotic combined with C15: C15 at constant 3 µM
[3] = system: C. glabrata 2586 clinical strain; experiment: MIC90/MFC, EUCAST broth microdilution; details: Nakaseomyces glabratus; for MFC: read-out: MFC; for MIC90: read-out: MIC90
C. glabrata 2586 [4] = experiment: FICI checkerboard, β-aescin with antifungal drugs; details: for FICI: combination with β-aescin
C. glabrata ATCC 90030 [5] = experiment: Interaction of AABs (3 µM) with antifungal agents, modified checkerboard; details: for Multiplicity factor (MF) with C9: C9 3 µM, |MF| = MIC90 alone/MIC90 with AAB; for Multiplicity factor (MF) with C11: C11 3 µM; for MIC90 of antimycotic combined with C11: C11 at constant 3 µM; for MIC90 of antimycotic combined with C11 / MIC90 of antimycotic combined with C13 / MIC90 of antimycotic combined with C9 / MIC90 of antimycotic combined with C15: dilutions in µg/mL; for Multiplicity factor (MF) with C13: C13 3 µM; for MIC90 of antimycotic combined with C13: C13 at constant 3 µM; for Multiplicity factor (MF) with C15: C15 3 µM; for MIC90 of antimycotic combined with C9: C9 at constant 3 µM; for MIC90 of antimycotic combined with C15: C15 at constant 3 µM
C. glabrata ATCC 90030 [6] = experiment: MIC90/MFC, EUCAST broth microdilution; details: Nakaseomyces glabratus, ATCC90030, ATCC 90030; for MFC: read-out: MFC; for MIC90: read-out: MIC90
[7] = system: C. glabrata 2853 clinical strain; experiment: MIC90/MFC, EUCAST broth microdilution; details: Nakaseomyces glabratus; for MFC: read-out: MFC; for MIC90: read-out: MIC90
C. glabrata ATCC 90030 [8] = experiment: FICI checkerboard, β-aescin with antifungal drugs; details: for FICI: combination with β-aescin
C. glabrata 2853 [9] = experiment: FICI checkerboard, β-aescin with antifungal drugs; details: for FICI: combination with β-aescin
[10] = system: C. glabrata strains (ATCC 90030, 2586, 2853); experiment: Interaction of AABs with antifungal agents, statements for all tested strains together; details: all of the tested C. glabrata strains; AABs 3 µM

Structure (SMILES): CC[C@@H]([C@H](C)O)n1ncn(-c2ccc(N3CCN(c4ccc(OC[C@@H]5CO[C@@](Cn6cncn6)(c6ccc(F)cc6F)C5)cc4)CC3)cc2)c1=O [Posaconazole]
- Multiplicity factor (MF) with C9 (C. glabrata 2586 [1]): 1
- Multiplicity factor (MF) with C9 (C. glabrata 2586 [1]; listed as posaconazole): not observed
- Multiplicity factor (MF) with C11 (C. glabrata 2586 [1]): 2
- MIC90 of antimycotic combined with C11 (C. glabrata 2586 [1]): 256
- Multiplicity factor (MF) with C13 (C. glabrata 2586 [1]): 2
- MIC90 of antimycotic combined with C13 (C. glabrata 2586 [1]): 256
- Multiplicity factor (MF) with C15 (C. glabrata 2586 [1]): 1
- Multiplicity factor (MF) with C15 (C. glabrata 2586 [1]; listed as posaconazole): not observed
- Multiplicity factor (MF) with C9 (C. glabrata 2853 [2]): 8 (8)
- Multiplicity factor (MF) with C9 (C. glabrata 2853 [2]; listed as posaconazole): 8
- MIC90 of antimycotic combined with C9 (C. glabrata 2853 [2]): 8 (8)
- Multiplicity factor (MF) with C11 (C. glabrata 2853 [2]): 4 (4)
- Multiplicity factor (MF) with C11 (C. glabrata 2853 [2]; listed as posaconazole): 4
- MIC90 of antimycotic combined with C11 (C. glabrata 2853 [2]): 4 (4)
- Multiplicity factor (MF) with C13 (C. glabrata 2853 [2]): 4 (4)
- Multiplicity factor (MF) with C13 (C. glabrata 2853 [2]; listed as posaconazole): 4
- MIC90 of antimycotic combined with C13 (C. glabrata 2853 [2]): 4 (4)
- Multiplicity factor (MF) with C15 (C. glabrata 2853 [2]): 256 (256)
- Multiplicity factor (MF) with C15 (C. glabrata 2853 [2]; listed as posaconazole): 256
- MIC90 of antimycotic combined with C15 (C. glabrata 2853 [2]): 256 (256)
- MFC [3]: 1020 µg/mL (≈ 1460 µM)
- MIC90 [3]: 512 µg/mL (≈ 731 µM)
- FICI (C. glabrata 2586 [4]): 1.002
- Multiplicity factor (MF) with C9 (C. glabrata ATCC 90030 [5]): two-fold
- Multiplicity factor (MF) with C11 (C. glabrata ATCC 90030 [5]): 8
- MIC90 of antimycotic combined with C11 (C. glabrata ATCC 90030 [5]): 32
- Multiplicity factor (MF) with C13 (C. glabrata ATCC 90030 [5]): 8
- MIC90 of antimycotic combined with C13 (C. glabrata ATCC 90030 [5]): 32
- Multiplicity factor (MF) with C15 (C. glabrata ATCC 90030 [5]): two-fold
- MFC (C. glabrata ATCC 90030 [6]): 1020 µg/mL (≈ 1460 µM)
- MIC90 (C. glabrata ATCC 90030 [6]): 256 µg/mL (≈ 365 µM)
- MFC [7]: 256 µg/mL (≈ 365 µM)
- MIC90 [7]: 1 µg/mL (≈ 1.43 µM)
- Type of interaction with β-AE (by FICI) (C. glabrata ATCC 90030 [8]): additive
- FICI (C. glabrata ATCC 90030 [8]): 1
- FICI (C. glabrata ATCC 90030 [8]; listed as posaconazole): 1.0
- Type of interaction with β-AE (by FICI) (C. glabrata 2853 [9]): additive
- FICI (C. glabrata 2853 [9]): 0.562

- MIC90 of antimycotic combined with C9 (C. glabrata 2586 [1]): 512
- MIC90 of antimycotic combined with C11 (C. glabrata 2586 [1]): 512
- MIC90 of antimycotic combined with C13 (C. glabrata 2586 [1]): 512
- MIC90 of antimycotic combined with C15 (C. glabrata 2586 [1]): 512
- MIC90 of antimycotic combined with C9 (C. glabrata 2853 [2]): 256
- MIC90 of antimycotic combined with C11 (C. glabrata 2853 [2]): 256
- MIC90 of antimycotic combined with C13 (C. glabrata 2853 [2]): 256
- MIC90 of antimycotic combined with C15 (C. glabrata 2853 [2]): 256
- MIC90 [3]: 512 µg/mL (≈ 3970 µM)
- MIC90 of antimycotic combined with C9 (C. glabrata ATCC 90030 [5]): 512
- MIC90 of antimycotic combined with C11 (C. glabrata ATCC 90030 [5]): 512
- MIC90 of antimycotic combined with C13 (C. glabrata ATCC 90030 [5]): 512
- MIC90 of antimycotic combined with C15 (C. glabrata ATCC 90030 [5]): 512
- MIC90 (C. glabrata ATCC 90030 [6]): 512 µg/mL (≈ 3970 µM)
- MIC90 [7]: 256 µg/mL (≈ 1980 µM)
Structure (SMILES): Nc1nc(=O)[nH]cc1F [5-Fluorocytosine]
- Multiplicity factor (MF) with C9 (C. glabrata 2586 [1]): 1
- Multiplicity factor (MF) with C11 (C. glabrata 2586 [1]): 1
- Multiplicity factor (MF) with C13 (C. glabrata 2586 [1]): 1
- Multiplicity factor (MF) with C15 (C. glabrata 2586 [1]): 1
- Multiplicity factor (MF) with C9 (C. glabrata 2853 [2]): 1
- Multiplicity factor (MF) with C11 (C. glabrata 2853 [2]): 1
- Multiplicity factor (MF) with C13 (C. glabrata 2853 [2]): 1
- Multiplicity factor (MF) with C15 (C. glabrata 2853 [2]): 1
- MFC [3]: 1020 µg/mL (≈ 7930 µM)
- FICI (C. glabrata 2586 [4]): 1.5
- Multiplicity factor (MF) with C9 (C. glabrata ATCC 90030 [5]): 1
- Multiplicity factor (MF) with C11 (C. glabrata ATCC 90030 [5]): 1
- Multiplicity factor (MF) with C13 (C. glabrata ATCC 90030 [5]): 1
- Multiplicity factor (MF) with C15 (C. glabrata ATCC 90030 [5]): 1
- MFC (C. glabrata ATCC 90030 [6]): 1020 µg/mL (≈ 7930 µM)
- MFC [7]: 512 µg/mL (≈ 3970 µM)
- MF with AABs [10]: 1
- FICI (C. glabrata ATCC 90030 [8]): 1.5
- FICI (C. glabrata 2853 [9]): 1.5

Structure (SMILES): C[C@@H](c1ncncc1F)[C@](O)(Cn1cncn1)c1ccc(F)cc1F [Voriconazole]
- MIC90 of antimycotic combined with C9 (C. glabrata 2586 [1]): 64
- Multiplicity factor (MF) with C11 (C. glabrata 2586 [1]): 64
- MIC90 of antimycotic combined with C11 (C. glabrata 2586 [1]): 8
- Multiplicity factor (MF) with C13 (C. glabrata 2586 [1]): 64
- MIC90 of antimycotic combined with C13 (C. glabrata 2586 [1]): 8
- Multiplicity factor (MF) with C15 (C. glabrata 2586 [1]): 64
- MIC90 of antimycotic combined with C15 (C. glabrata 2586 [1]): 8
- Multiplicity factor (MF) with C9 (C. glabrata 2853 [2]): 1
- Multiplicity factor (MF) with C9 (C. glabrata 2853 [2]; listed as voriconazole): did not alter the level of activity
- MIC90 of antimycotic combined with C9 (C. glabrata 2853 [2]): 2
- Multiplicity factor (MF) with C11 (C. glabrata 2853 [2]): 2
- Multiplicity factor (MF) with C11 (C. glabrata 2853 [2]; listed as voriconazole): twice
- MIC90 of antimycotic combined with C11 (C. glabrata 2853 [2]): 1
- Multiplicity factor (MF) with C13 (C. glabrata 2853 [2]): 2
- Multiplicity factor (MF) with C13 (C. glabrata 2853 [2]; listed as voriconazole): twice
- MIC90 of antimycotic combined with C13 (C. glabrata 2853 [2]): 1
- Multiplicity factor (MF) with C15 (C. glabrata 2853 [2]): 128
- MIC90 of antimycotic combined with C15 (C. glabrata 2853 [2]): 256
- MFC [3]: 1020 µg/mL (≈ 2930 µM)
- MIC90 [3]: 512 µg/mL (≈ 1470 µM)
- Type of interaction with β-AE (by FICI) (C. glabrata 2586 [4]): additive
- Multiplicity factor (MF) with C9 (C. glabrata ATCC 90030 [5]): 64
- MIC90 of antimycotic combined with C9 (C. glabrata ATCC 90030 [5]): 8
- Multiplicity factor (MF) with C11 (C. glabrata ATCC 90030 [5]): 64
- MIC90 of antimycotic combined with C11 (C. glabrata ATCC 90030 [5]): 8
- Multiplicity factor (MF) with C13 (C. glabrata ATCC 90030 [5]): 64
- MIC90 of antimycotic combined with C13 (C. glabrata ATCC 90030 [5]): 8
- Multiplicity factor (MF) with C15 (C. glabrata ATCC 90030 [5]): 64
- MIC90 of antimycotic combined with C15 (C. glabrata ATCC 90030 [5]): 8
- MFC (C. glabrata ATCC 90030 [6]): 1020 µg/mL (≈ 2930 µM)
- MIC90 (C. glabrata ATCC 90030 [6]): 512 µg/mL (≈ 1470 µM)
- MFC [7]: 512 µg/mL (≈ 1470 µM)
- MIC90 [7]: 2 µg/mL (≈ 5.73 µM)
- Type of interaction with β-AE (by FICI) (C. glabrata ATCC 90030 [8]): additive
- FICI (C. glabrata ATCC 90030 [8]): 1
- FICI (C. glabrata ATCC 90030 [8]; listed as voriconazole): 1.0
- FICI (C. glabrata 2853 [9]): 2.5
